Results on six compounds are retold here after article PMC7235863, “Benzamide Derivatives Targeting the Cell Division Protein FtsZ: Modifications of the Linker and the Benzodioxane Scaffold and Their Effects on Antimicrobial Activity” (Antibiotics, 2020).

The subject of one data set is MDRSA 11.7. Put plainly: Broth microdilution MIC, MDRSA 11.7. It is filed as cell-based, Staphylococcus aureus. As for the experimental part:
(§1) Antimicrobial activity of 1–8 was evaluated on both Gram-positive (Table 3) and Gram-negative (Table 4) species. As a continuation of our previous studies, considering the Gram-positive S. aureus, we chose a methicillin-sensitive S. aureus (MSSA, ATCC 29213), a methicillin-resistant S. aureus (MRSA, ATCC 43300) and two clinical isolates of S. aureus showing multi-drug resistance (MDRSA).
(§2) Antibacterial activities of compounds were determined by the broth microdilution method against MDRSA 11.7, MDRSA 12.1 and E. coli N43 following the European Committee on Antimicrobial Susceptibility Testing (EUCAST) recommendations and Clinical and Laboratory Standards Institute (CLSI) guidelines. Strains MDRSA ST-11.7 and ST-12.1 were obtained through the interlaboratory control organized by the EU Reference Laboratory—Antimicrobial Resistance. Only data on their resistance to antibiotics are known, but other data are not available.
(§3) Bacterial suspension of specific bacterial strain equivalent to 0.5 McFarland turbidity standard was diluted with cation-adjusted Mueller Hinton broth with TES (Thermo Fisher Scientific), to obtain a final inoculum of 10^5 CFU/mL. Compounds dissolved in DMSO and inoculum were mixed together and incubated for 20 h at 37 °C. After incubation, the minimal inhibitory concentration (MIC) values were determined by visual inspection as the lowest dilution of compounds showing no turbidity. Tetracycline was used as a positive control on every assay plate.

The test system of the next data set is MRC-5 cells. Put plainly: MTT cytotoxicity assay. It is filed as cell-based, human. The note with it: MRC-5, concentration reducing cell viability by 90%, 24-h incubation. As for the experimental part:
The compounds showing the most promising activities vs. MRSA were also assessed for their cytotoxicity on human MRC-5 cells. TD90, the concentration (µg/mL) able to reduce by 90% the viability of these cells, was determined together with the therapeutic index (TI), expressed as the ratio between TD90 and MBC values.
(§4) Normal human lung fibroblasts (MRC-5) were grown in Dulbecco’s modified Eagle’s medium (DMEM) supplemented with 10% calf serum, 100 U/mL penicillin and […] streptomycin in an incubator at 5% CO2 atmosphere and 37 °C. The Gram-positive Staphylococcus aureus (methicillin-sensitive, MSSA ATCC 29213, and methicillin-resistant, MRSA ATCC 43300) and the Gram-negative Escherichia coli (ESBL, extended-spectrum beta-lactamase-positive) bacterial cells were grown in Luria-Bertani broth (LB) at 37 °C under constant shaking at 300 rpm.
Compounds showing an antibacterial activity at a concentration lower than 10 μg/mL were serially diluted in DMEM and tested on MRC-5 cells by the MTT cytotoxicity assay (Sigma, St Louis, MO, USA). Cells (10^4 cells/well) were tested in a 96-well plate, in quadruplicate, using serially two-fold-diluted concentrations of the compound in 100 μL DMEM medium. After a 24-h incubation, the compound was removed, and the cells were overlaid with 1 mg/mL MTT in 100 μL serum-free DMEM for 3 h at 37 °C. The MTT solution was then replaced with DMSO for 10 min, and the absorbance was measured at 570 nm. The percentage of cytotoxicity was calculated by the formula [100 − (sample OD/untreated cells OD) × 100]. The compound concentration reducing cell viability by 90% was defined as the TD90 cytotoxic dose. The “therapeutic index” (TI) was also determined and defined as the ratio between TD90 and the MBC values.
Background: Tetrazolium assays rely on reduction of a dye to a coloured formazan, in cell work by metabolically active cells.

For the next data set, the system named is MRSA ATCC 43300. Description: MIC/MBC determination in LB broth, MRSA. It is filed as cell-based, Staphylococcus aureus. As for the experimental part:
as §4
(§5) The antibacterial activity was tested on both a methicillin-sensitive and a methicillin-resistant S. aureus strain, and an ESBL E. coli clinical isolate. All the compounds were dissolved at the final concentration of 20 mg/mL in dimethyl sulfoxide (DMSO) and serially diluted in LB. Fresh cell cultures were used at 10^5 cells/mL in a final volume of 2 mL. Each bacterial sample was grown with different compound concentrations that ranged from 100 to 0.1 μg/mL. […] To determine the MBC, the bacteria were then washed three times with LB, centrifuged at 900× g for 10 min at 4 °C, and the pellet resuspended in fresh LB. After overnight incubation at 37 °C, the absence of growth was confirmed by OD measurement. The presence of antibacterial activity, at any concentration tested, was established for values of absorbance < 0.1 OD600. All tests were performed in quadruplicate and for each series of experiments, both positive (no compounds) and negative (no bacteria) controls were included.

For the next data set, the system named is E. coli ATCC 25922. Description: MIC on reference sensitive E. coli. It is filed as cell-based, Escherichia coli. The text has this:
(§6) We thus tested 1–8 and III initially on the reference sensitive E. coli ATCC 25922 and on the extended-spectrum of beta-lactamase-positive (ESBL) E. coli, as Gram-negative bacteria. Moreover, in order to evaluate the susceptibility of this series of compounds to the efflux pump AcrAB, we employed also the above-mentioned E. coli N43, which is the knockout of the AcrAB cell membrane pump.

The next data set has as its system MSSA ATCC 29213. Description: MIC/MBC determination in LB broth, MSSA. The settings on record: for MBC/MIC / MBC / MIC: MSSA ATCC 29213. In kind it is cell-based, Staphylococcus aureus. As for the experimental part:
as §4, §5

The next data set deals with ESBL E. coli. Put plainly: MIC in LB broth, ESBL E. coli clinical isolate. It is filed as cell-based, Escherichia coli. As for the experimental part: as §6, §4, §5
Another data set concerns MDRSA 12.1. Description: Broth microdilution MIC, MDRSA 12.1. It is filed as cell-based, Staphylococcus aureus. As for the experimental part: as §1, §2, §3
On the technique in general: Dilution methods test growth across graded concentrations, often in twofold steps.

The next data set deals with E. coli N43. Description: Broth microdilution MIC, efflux-defective E. coli N43. It is filed as cell-based, Escherichia coli. As for the experimental part:
as §6, §2, §3

The subject of data set [1] is Methicillin Sensitive S. aureus. The note with it: chromanes ref 22; cited from earlier work.
Setting [2] is: Staphylococcus aureus, read-out: MIC.
[3] abbreviates: Staphylococcus aureus, read-out: MBC.
The mark [4] stands for this setting: Escherichia coli, read-out: MIC.

In brackets after ≈: the same amount, converted by molar mass. Like-named read-outs stand apart in the source and are kept apart here. Some results are limits rather than exact numbers.

As a reminder, the MIC is the least concentration at which growth counts as inhibited. Usually MBC stands for the smallest concentration meeting the test's criterion for killing. On to `NC(=O)c1c(F)ccc(OCCC2COc3ccccc3O2)c1F` (stereo not drawn) [Compound 7], for which the minimum inhibitory concentration (MIC) with MDRSA 11.7 (setting [2]) was 4 µg/mL (≈ 11.9 µM); with MRSA ATCC 43300 (setting [2]) it was 5 µg/mL (≈ 14.9 µM); in the data set on E. coli ATCC 25922 (Escherichia coli, ATCC25922), more than 100 µg/mL; in the data set on MSSA ATCC 29213 (setting [2]) it was 5 µg/mL (≈ 14.9 µM); with ESBL E. coli (setting [4]), more than 100 µg/mL; in the data set on MDRSA 12.1 (setting [2]) it was 4 µg/mL (≈ 11.9 µM). In the data set on E. coli N43 (Escherichia coli, N43), this compound showed a minimal inhibitory concentration (MIC) of 8 µg/mL (≈ 23.9 µM). The same compound came in with a TD90 with MRC-5 cells of 380 µg/mL. Further, the MBC/MIC against MRSA ATCC 43300 and against MSSA ATCC 29213 was 1 each time. Further, the MBC in the data set on MRSA ATCC 43300 (setting [3]) and in the data set with MSSA ATCC 29213 (setting [3]) was 5 µg/mL (≈ 14.9 µM) in each case.

Regarding `NC(=O)c1c(F)ccc(OCC2COc3ccccc3O2)c1F` (stereo not drawn) [III, reference compound], the minimum inhibitory concentration (MIC) is 16 µg/mL (≈ 49.8 µM) in the data set with MDRSA 11.7 (setting [2]); 5 µg/mL (≈ 15.6 µM) in the data set on MRSA ATCC 43300 (setting [2]); more than 100 µg/mL in the data set on E. coli ATCC 25922 (Escherichia coli, ATCC25922); 5 µg/mL (≈ 15.6 µM) in the data set on MSSA ATCC 29213 (setting [2]); more than 100 µg/mL in the data set on ESBL E. coli (setting [4]); 8 µg/mL (≈ 24.9 µM) with MDRSA 12.1 (setting [2]). In addition, the MIC in the data set with E. coli N43 (Escherichia coli, N43) was more than 128 µg/mL. Further, the MBC/MIC with MRSA ATCC 43300 and with MSSA ATCC 29213 was 16 each time. Moreover, the MBC in the data set with MRSA ATCC 43300 (setting [3]) and in the data set on MSSA ATCC 29213 (setting [3]) was 80 µg/mL (≈ 249 µM) throughout. Moreover, the MBC/MIC ratios in the data set on MSSA ATCC 29213 (S. aureus, as summarised in the text from Table 3) was 16.

Regarding “3-(1,4-benzodithiane-2-yl)-2,6-difluorobenzamide [Compound 5]”, the minimum inhibitory concentration (MIC) was 8 µg/mL in the data set with MDRSA 11.7; 5 µg/mL against MRSA ATCC 43300; more than 100 µg/mL against E. coli ATCC 25922 (E. coli ATCC 25922); 5 µg/mL against MSSA ATCC 29213; more than 100 µg/mL with ESBL E. coli; 8 µg/mL in the data set with MDRSA 12.1. For the same compound, in the data set on E. coli N43 (E. coli N43 (AcrAB knockout)), the minimal inhibitory concentration (MIC) is recorded as more than 128 µg/mL. For the same compound, the TD90 in the data set with MRC-5 cells is 200 µg/mL. The minimum bactericidal concentration (MBC) with MRSA ATCC 43300 and against MSSA ATCC 29213 was 10 µg/mL in each case. For the same compound, the MBC/MIC in the data set with MRSA ATCC 43300 and against MSSA ATCC 29213 was 2 each time.

Take `NC(=O)c1c(F)ccc(OCC2CS(=O)(=O)c3ccccc3O2)c1F` (stereo not drawn) [Compound 2]: the MBC with MRSA ATCC 43300 (setting [3]) and with MSSA ATCC 29213 (setting [3]) was more than 100 µg/mL throughout. For the same compound, the minimal inhibitory concentration (MIC) in the data set on MRSA ATCC 43300 (setting [2]) is more than 100 µg/mL; against E. coli ATCC 25922 (Escherichia coli, ATCC25922), more than 100 µg/mL; with MSSA ATCC 29213 (setting [2]), more than 100 µg/mL; in the data set with ESBL E. coli (setting [4]), more than 100 µg/mL.

In the case of `NC(=O)c1c(F)ccc(OCCC2CSc3ccccc3O2)c1F` (stereo not drawn) [Compound 6], the minimal inhibitory concentration (MIC) with MDRSA 11.7 (setting [2]) was 8 µg/mL (≈ 22.8 µM); in the data set with MRSA ATCC 43300 (setting [2]), 2.5 µg/mL (≈ 7.11 µM); with E. coli ATCC 25922 (Escherichia coli, ATCC25922) it was more than 100 µg/mL; in the data set on MSSA ATCC 29213 (setting [2]), 2.5 µg/mL (≈ 7.11 µM); in the data set with ESBL E. coli (setting [4]) it was more than 100 µg/mL; in the data set on MDRSA 12.1 (setting [2]) it was 4 µg/mL (≈ 11.4 µM). The MIC with E. coli N43 (Escherichia coli, N43) is more than 128 µg/mL. Further, the MBC/MIC with MRSA ATCC 43300 and in the data set with MSSA ATCC 29213 was 2 throughout. The MBC in the data set with MRSA ATCC 43300 (setting [3]) and in the data set on MSSA ATCC 29213 (setting [3]) was 5 µg/mL (≈ 14.2 µM) throughout.

For the compound `NC(=O)c1c(F)ccc(OCC2CCc3ccccc3O2)c1F` (stereo not drawn) [IV], the “MIC vs. MSSA” value in [1] is recorded as 5 µg/mL (≈ 15.7 µM).
